Key:
[1] = system: Alexandergrass; assay: Test D Alexandergrass; type: in vivo, Brachiaria plantaginea; conditions: Preemergence, 0 to 100 scale
Method in brief: (§1)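 Scoring used a 0–100 visual injury scale, with 0 meaning no effect and 100 complete control, assessed 14–21 days after application alongside untreated pots. Preemergence treatments went onto sandy loam surfaces of separately potted seeds within a day of sowing.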

[2] = system: tall mallow; assay: Test D tall mallow; type: in vivo, Malva sylvestris; conditions: Preemergence, 0 to 100 scale
Method in brief: as §1

[3] = system: guineagrass; assay: Test D guineagrass; type: in vivo, Panicum maximum; conditions: Preemergence, 0 to 100 scale
Method in brief: as §1

[4] = system: Green foxtail; assay: Test D green foxtail; type: in vivo; conditions: Rate 250 g/ha; Preemergence; 0 to 100 scale
Method in brief: as §1

[5] = system: purple nutsedge; assay: Test D purple nutsedge; type: in vivo, Cyperus rotundus; conditions: Preemergence, 0 to 100 scale
Method in brief: as §1

[6] = system: common ragweed; assay: Test D common ragweed; type: in vivo, Ambrosia elatior; conditions: Preemergence, 0 to 100 scale
Method in brief: as §1

[7] = system: itchgrass; assay: Test D itchgrass; type: in vivo, Rottboellia exaltata; conditions: Preemergence, 0 to 100 scale
Method in brief: as §1

[8] = system: Spanishneedles; assay: Test D Spanishneedles; type: in vivo, Bidens bipinnata; conditions: Preemergence, 0 to 100 scale, 0 no injury, 100 complete control
Method in brief: as §1

[9] = system: common groundsel; assay: Test D common groundsel; type: in vivo, Senecio vulgaris; conditions: Preemergence, 0 to 100 scale
Method in brief: as §1

[10] = system: Green foxtail; assay: Test D green foxtail; type: in vivo
Method in brief: as §1

[11] = system: Johnson grass; assay: Test D Johnson grass; type: in vivo, Sorghum halepense; conditions: Preemergence, 0 to 100 scale
Method in brief: as §1

[12] = system: pitted morningglory; assay: Test D pitted morningglory; type: in vivo, Ipomoea lacunosa; conditions: Preemergence, 0 to 100 scale
Method in brief: as §1

[13] = system: large crabgrass; assay: Test D large crabgrass; type: in vivo, Digitaria sanguinalis; conditions: Preemergence, 0 to 100 scale
Method in brief: as §1

[14] = system: surinam grass; assay: Test D surinam grass; type: in vivo, Brachiaria decumbens; conditions: Preemergence, 0 to 100 scale
Method in brief: as §1

[15] = system: sandbur; assay: Test D sandbur; type: in vivo, Cenchrus echinatus; conditions: Preemergence, 0 to 100 scale
Method in brief: as §1

[16] = system: goosegrass; assay: Test D goosegrass; type: in vivo, Eleusine indica; conditions: Preemergence, 0 to 100 scale
Method in brief: as §1

[17] = system: dallisgrass; assay: Test D dallisgrass; type: in vivo, Paspalum dilatatum; conditions: Preemergence, 0 to 100 scale
Method in brief: as §1

[18] = Rate 16 g/ha, 0 no injury, 100 complete control
[19] = Rate 32 g/ha, 0 no injury, 100 complete control
[20] = Rate 64 g/ha, 0 no injury, 100 complete control
[21] = Rate 125 g/ha, 0 no injury, 100 complete control
[22] = Rate 64 g/ha, Preemergence; 0 to 100 scale, 0 no injury, 100 complete control
[23] = Rate 125 g/ha, Preemergence; 0 to 100 scale, 0 no injury, 100 complete control

Structure (SMILES): CCCn1c(=O)on(C(=O)N(c2ccc(Cl)cc2)C(C)C)c1=O [Compound 119]
- Plant response rating, Alexandergrass [1, 18]: 0
- Plant response rating, Alexandergrass [1, 19]: 50
- Plant response rating, Alexandergrass [1, 20]: 75
- Plant response rating, Alexandergrass [1, 21]: 98
- Plant response rating, Alexandergrass ([1]; Rate 250 g/ha): 100
- Plant response rating, Tall Mallow [2, 18]: 0
- Plant response rating, Tall Mallow [2, 19]: 0
- Tall Mallow plant response rating [2, 20]: 0
- Tall Mallow plant response rating [2, 21]: 0
- Plant response rating, Tall Mallow ([2]; Rate 250 g/ha): 0
- Plant response rating, Guineagrass [3, 18]: 65
- Plant response rating, Guineagrass [3, 19]: 75
- Plant response rating, Guineagrass [3, 20]: 85
- Plant response rating, Guineagrass [3, 21]: 98
- Plant response rating, Guineagrass ([3]; Rate 250 g/ha): 98
- Plant response rating, Green foxtail [4]: 100
- Plant response rating, Purple nutsedge [5, 18]: 0
- Plant response rating, Purple nutsedge [5, 19]: 0
- Purple nutsedge plant response rating [5, 20]: 0
- Purple nutsedge plant response rating [5, 21]: 0
- Plant response rating, Purple nutsedge ([5]; Rate 250 g/ha): 0
- Plant response rating, C. ragweed [6, 18]: 0
- Plant response rating, C. ragweed [6, 19]: 0
- Plant response rating, C. ragweed [6, 20]: 0
- Plant response rating, C. ragweed [6, 21]: 0
- Plant response rating, C. ragweed ([6]; Rate 250 g/ha): 0
- Plant response rating, Itchgrass [7, 18]: 0
- Plant response rating, Itchgrass [7, 19]: 10
- Plant response rating, Itchgrass [7, 20]: 50
- Plant response rating, Itchgrass [7, 21]: 60
- Plant response rating, Itchgrass ([7]; Rate 250 g/ha): 75
- Plant response rating, Spanishneedles ([8]; Rate 16 g/ha): 0
- Plant response rating, Spanishneedles ([8]; Rate 32 g/ha): 0
- Spanishneedles plant response rating ([8]; Rate 64 g/ha): 0
- Spanishneedles plant response rating ([8]; Rate 125 g/ha): 10
- Plant response rating, Com. groundsel [9, 18]: 85
- Plant response rating, Com. groundsel [9, 19]: 98
- Plant response rating, Com. groundsel [9, 20]: 100
- Plant response rating, Com. groundsel [9, 21]: 100
- Plant response rating, Com. groundsel ([9]; Rate 250 g/ha): 100
- Plant response rating, Green foxtail ([10]; Preemergence; Rate 16 g/ha; 0 to 100 scale, 0 no injury, 100 complete control): 10
- Plant response rating, Green foxtail ([10]; Preemergence; Rate 32 g/ha; 0 to 100 scale, 0 no injury, 100 complete control): 75
- Plant response rating, Green foxtail ([10]; Rate 16 g/ha; Preemergence; 0 to 100 scale, 0 no injury, 100 complete control): 10
- Plant response rating, Green foxtail ([10]; Rate 32 g/ha; Preemergence; 0 to 100 scale, 0 no injury, 100 complete control): 100
- Green foxtail plant response rating [10, 22]: 90
- Plant response rating, Green foxtail [10, 22]: 90
- Green foxtail plant response rating [10, 23]: 100
- Plant response rating, Green foxtail [10, 23]: 100
- Plant response rating, Green foxtail ([10]; Rate 250 g/ha; Preemergence; 0 to 100 scale): 100
- Plant response rating, Johnsongrass [11, 18]: 0
- Plant response rating, Johnsongrass [11, 19]: 0
- Plant response rating, Johnsongrass [11, 20]: 65
- Plant response rating, Johnsongrass [11, 21]: 75
- Plant response rating, Johnsongrass ([11]; Rate 250 g/ha): 85
- Plant response rating, P. morninglory [12, 18]: 0
- Plant response rating, P. morninglory [12, 19]: 0
- Plant response rating, P. morninglory [12, 20]: 0
- Plant response rating, P. morninglory [12, 21]: 0
- Plant response rating, P. morninglory ([12]; Rate 250 g/ha): 0
- Plant response rating, Large crabgrass [13, 18]: 85
- Plant response rating, Large crabgrass [13, 19]: 90
- Plant response rating, Large crabgrass [13, 20]: 98
- Plant response rating, Large crabgrass [13, 21]: 100
- Plant response rating, Large crabgrass ([13]; Rate 250 g/ha): 100
- Plant response rating, Surinam grass [14, 18]: 0
- Plant response rating, Surinam grass [14, 19]: 0
- Surinam grass plant response rating [14, 20]: 50
- Surinam grass plant response rating [14, 21]: 85
- Plant response rating, Surinam grass ([14]; Rate 250 g/ha): 98
- Plant response rating, Sandbur [15, 18]: 0
- Plant response rating, Sandbur [15, 19]: 0
- Sandbur plant response rating [15, 20]: 65
- Sandbur plant response rating [15, 21]: 98
- Plant response rating, Sandbur ([15]; Rate 250 g/ha): 100
- Plant response rating, Goosegrass [16, 18]: 30
- Plant response rating, Goosegrass [16, 19]: 85
- Plant response rating, Goosegrass [16, 20]: 98
- Plant response rating, Goosegrass [16, 21]: 100
- Plant response rating, Goosegrass ([16]; Rate 250 g/ha): 100
- Plant response rating, Dallisgrass [17, 18]: 30
- Plant response rating, Dallisgrass [17, 19]: 65
- Plant response rating, Dallisgrass [17, 20]: 85
- Plant response rating, Dallisgrass [17, 21]: 90
- Plant response rating, Dallisgrass ([17]; Rate 250 g/ha): 98
